Source: ChEMBL document CHEMBL4376823, “The discovery of a potent and selective third-generation EGFR kinase inhibitor as a therapy for EGFR L858R/T790M double mutant non-small cell lung cancer” (Eur J Med Chem, 2019)

What was measured:
NCI-H1975 [1] = assay: Induction of apoptosis in human NCI-H1975 cells assessed as late apoptotic cells at 50 nM incubated for 48 hrs by propidium iodide and annexin-V FITC staining based flow cytometry (reference value: 0.23 %); type: functional
NCI-H1975 [2] = assay: Induction of apoptosis in human NCI-H1975 cells assessed as early apoptotic cells at 5 nM incubated for 72 hrs by propidium iodide and annexin-V FITC staining based flow cytometry (reference value: 2.43 %); type: functional
NCI-H1975 [3] = assay: Induction of apoptosis in human NCI-H1975 cells assessed as early apoptotic cells at 25 nM incubated for 48 hrs by propidium iodide and annexin-V FITC staining based flow cytometry (reference value: 0.95 %); type: functional
[4] = AUC (0 to t) in ICR mouse at 10 mg/kg, po; type: ADME, organism-based; conditions: in vivo
NCI-H1975 [5] = assay: Induction of apoptosis in human NCI-H1975 cells assessed as necrotic cells at 50 nM incubated for 72 hrs by propidium iodide and annexin-V FITC staining based flow cytometry (reference value: 0.01 %); type: functional
[6] = MRT (0 to infinity) in ICR mouse at 10 mg/kg, po; type: ADME, organism-based; conditions: in vivo
NCI-H1975 [7] = assay: Induction of apoptosis in human NCI-H1975 cells assessed as early apoptotic cells at 25 nM incubated for 72 hrs by propidium iodide and annexin-V FITC staining based flow cytometry (reference value: 2.43 %); type: functional
[8] = target: Epidermal growth factor receptor (Homo sapiens, UniProt P00533, L858R); assay: Inhibition of recombinant human GST-tagged EGFR L858R mutant expressed in baculovirus expression system using Tyr 04 as substrate incubated for 1 hr by Z'-LYTE assay
Sequence of Epidermal growth factor receptor (Homo sapiens, UniProt P00533, L858R) (P00533 25-1210 L858R limits assumed): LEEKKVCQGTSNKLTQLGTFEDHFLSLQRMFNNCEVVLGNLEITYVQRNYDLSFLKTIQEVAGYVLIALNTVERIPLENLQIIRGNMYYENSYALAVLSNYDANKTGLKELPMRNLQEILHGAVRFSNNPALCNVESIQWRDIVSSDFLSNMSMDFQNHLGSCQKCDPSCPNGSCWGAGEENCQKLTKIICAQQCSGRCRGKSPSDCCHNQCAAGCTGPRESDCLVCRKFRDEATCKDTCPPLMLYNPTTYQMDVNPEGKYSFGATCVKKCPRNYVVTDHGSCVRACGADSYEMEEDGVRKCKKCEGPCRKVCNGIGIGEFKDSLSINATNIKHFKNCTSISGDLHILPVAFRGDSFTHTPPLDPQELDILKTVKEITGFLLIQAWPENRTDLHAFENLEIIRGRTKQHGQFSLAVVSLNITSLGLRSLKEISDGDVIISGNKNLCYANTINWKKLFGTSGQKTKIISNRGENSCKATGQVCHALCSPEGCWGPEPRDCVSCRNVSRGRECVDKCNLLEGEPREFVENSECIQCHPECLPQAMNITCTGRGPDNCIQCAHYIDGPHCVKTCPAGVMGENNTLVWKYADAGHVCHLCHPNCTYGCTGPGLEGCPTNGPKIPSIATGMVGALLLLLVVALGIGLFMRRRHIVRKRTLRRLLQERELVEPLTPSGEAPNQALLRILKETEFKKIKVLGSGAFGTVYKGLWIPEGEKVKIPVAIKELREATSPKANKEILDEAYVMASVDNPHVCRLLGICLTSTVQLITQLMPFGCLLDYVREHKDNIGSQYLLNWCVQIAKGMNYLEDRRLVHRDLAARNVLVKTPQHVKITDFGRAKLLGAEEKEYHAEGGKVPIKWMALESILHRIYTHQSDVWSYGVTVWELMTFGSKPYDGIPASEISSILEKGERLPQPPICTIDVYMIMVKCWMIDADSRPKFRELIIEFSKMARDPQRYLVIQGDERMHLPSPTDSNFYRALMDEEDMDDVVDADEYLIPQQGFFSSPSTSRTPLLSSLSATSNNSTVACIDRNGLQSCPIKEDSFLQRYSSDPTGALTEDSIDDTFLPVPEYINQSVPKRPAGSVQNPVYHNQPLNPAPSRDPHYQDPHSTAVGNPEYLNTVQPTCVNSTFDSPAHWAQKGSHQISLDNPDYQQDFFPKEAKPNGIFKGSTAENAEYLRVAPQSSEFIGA

[9] = Tmax in ICR mouse at 5 mg/kg, iv; type: ADME, organism-based; conditions: in vivo
NCI-H1975 [10] = assay: Induction of apoptosis in human NCI-H1975 cells assessed as early apoptotic cells at 5 nM incubated for 24 hrs by propidium iodide and annexin-V FITC staining based flow cytometry (reference value: 0.94 %); type: functional
NCI-H1975 [11] = assay: Induction of apoptosis in human NCI-H1975 cells assessed as necrotic cells at 25 nM incubated for 24 hrs by propidium iodide and annexin-V FITC staining based flow cytometry (reference value: 0.01 %); type: functional
[12] = Clearance in ICR mouse at 5 mg/kg, iv; type: ADME, organism-based; conditions: in vivo
NCI-H1975 [13] = assay: Induction of apoptosis in human NCI-H1975 cells assessed as viable cells at 25 nM incubated for 24 hrs by propidium iodide and annexin-V FITC staining based flow cytometry (reference value: 98.82 %); type: functional; conditions: NCI-H1975, 24 h, read-out: Activity
NCI-H1975 [14] = assay: Induction of apoptosis in human NCI-H1975 cells assessed as viable cells at 50 nM incubated for 48 hrs by propidium iodide and annexin-V FITC staining based flow cytometry (reference value: 99.05 %); type: functional; conditions: NCI-H1975, 48 h, read-out: Activity
[15] = Tmax in ICR mouse at 10 mg/kg, po; type: ADME, organism-based; conditions: in vivo
NCI-H1975 [16] = assay: Induction of apoptosis in human NCI-H1975 cells assessed as late apoptotic cells at 50 nM incubated for 72 hrs by propidium iodide and annexin-V FITC staining based flow cytometry (reference value: 0.01 %); type: functional
NCI-H292 = assay: Antiproliferative activity against human NCI-H292 cells expressing EGFR assessed as reduction in cell viability incubated for 72 hrs by MTT assay; type: functional, cell-based; conditions: nci-h292
NCI-H1975 [17] = assay: Induction of apoptosis in human NCI-H1975 cells assessed as early apoptotic cells at 50 nM incubated for 24 hrs by propidium iodide and annexin-V FITC staining based flow cytometry (reference value: 0.94 %); type: functional
NCI-H1975 [18] = assay: Induction of apoptosis in human NCI-H1975 cells assessed as late apoptotic cells at 25 nM incubated for 48 hrs by propidium iodide and annexin-V FITC staining based flow cytometry (reference value: 0.23 %); type: functional
[19] = Cytotoxicity against human HLF cells expressing EGFR assessed as reduction in cell viability incubated for 72 hrs by MTT assay; type: cell-based
[20] = AUC (0 to infinity) in ICR mouse at 10 mg/kg, po; type: ADME, organism-based; set-up: dose 10 mg/kg, route oral, time infinity; conditions: in vivo
NCI-H1975 [21] = assay: Inhibition of cell migration in human NCI-H1975 cells at 50 nM incubated for 24 hrs by phase contrast microscopy relative to control; type: functional; conditions: NCI-H1975, 24 h
NCI-H1975 [22] = assay: Inhibition of cell migration in human NCI-H1975 cells at 25 nM incubated for 24 hrs by phase contrast microscopy relative to control; type: functional; conditions: Homo sapiens, NCI-H1975, 24 h
NCI-H1975 [23] = assay: Induction of apoptosis in human NCI-H1975 cells assessed as necrotic cells at 25 nM incubated for 48 hrs by propidium iodide and annexin-V FITC staining based flow cytometry (reference value: 0.01 %); type: functional
NCI-H1975 [24] = assay: Induction of apoptosis in human NCI-H1975 cells assessed as necrotic cells at 50 nM incubated for 48 hrs by propidium iodide and annexin-V FITC staining based flow cytometry (reference value: 0.01 %); type: functional
NCI-H1975 [25] = assay: Induction of apoptosis in human NCI-H1975 cells assessed as viable cells at 5 nM incubated for 48 hrs by propidium iodide and annexin-V FITC staining based flow cytometry (reference value: 99.05 %); type: functional; conditions: NCI-H1975, 48 h, read-out: Activity
NCI-H1975 [26] = assay: Antiproliferative activity against human NCI-H1975 cells expressing EGFR T790M/L858R mutant assessed as reduction in cell viability incubated for 72 hrs by MTT assay; type: functional, cell-based; conditions: nci-h1975
NCI-H1975 [27] = assay: Induction of apoptosis in human NCI-H1975 cells assessed as early apoptotic cells at 50 nM incubated for 72 hrs by propidium iodide and annexin-V FITC staining based flow cytometry (reference value: 2.43 %); type: functional
NCI-H1975 [28] = assay: Induction of apoptosis in human NCI-H1975 cells assessed as early apoptotic cells at 25 nM incubated for 24 hrs by propidium iodide and annexin-V FITC staining based flow cytometry (reference value: 0.94 %); type: functional
[29] = target: Epidermal growth factor receptor (Homo sapiens, UniProt P00533); assay: Inhibition of recombinant human GST-tagged EGFR (668 to 1210 residues) expressed in baculovirus expression system using Tyr 04 as substrate incubated for 1 hr by Z'-LYTE assay
Sequence of Epidermal growth factor receptor (Homo sapiens, UniProt P00533) (P00533 whole entry, the tested form may be a part): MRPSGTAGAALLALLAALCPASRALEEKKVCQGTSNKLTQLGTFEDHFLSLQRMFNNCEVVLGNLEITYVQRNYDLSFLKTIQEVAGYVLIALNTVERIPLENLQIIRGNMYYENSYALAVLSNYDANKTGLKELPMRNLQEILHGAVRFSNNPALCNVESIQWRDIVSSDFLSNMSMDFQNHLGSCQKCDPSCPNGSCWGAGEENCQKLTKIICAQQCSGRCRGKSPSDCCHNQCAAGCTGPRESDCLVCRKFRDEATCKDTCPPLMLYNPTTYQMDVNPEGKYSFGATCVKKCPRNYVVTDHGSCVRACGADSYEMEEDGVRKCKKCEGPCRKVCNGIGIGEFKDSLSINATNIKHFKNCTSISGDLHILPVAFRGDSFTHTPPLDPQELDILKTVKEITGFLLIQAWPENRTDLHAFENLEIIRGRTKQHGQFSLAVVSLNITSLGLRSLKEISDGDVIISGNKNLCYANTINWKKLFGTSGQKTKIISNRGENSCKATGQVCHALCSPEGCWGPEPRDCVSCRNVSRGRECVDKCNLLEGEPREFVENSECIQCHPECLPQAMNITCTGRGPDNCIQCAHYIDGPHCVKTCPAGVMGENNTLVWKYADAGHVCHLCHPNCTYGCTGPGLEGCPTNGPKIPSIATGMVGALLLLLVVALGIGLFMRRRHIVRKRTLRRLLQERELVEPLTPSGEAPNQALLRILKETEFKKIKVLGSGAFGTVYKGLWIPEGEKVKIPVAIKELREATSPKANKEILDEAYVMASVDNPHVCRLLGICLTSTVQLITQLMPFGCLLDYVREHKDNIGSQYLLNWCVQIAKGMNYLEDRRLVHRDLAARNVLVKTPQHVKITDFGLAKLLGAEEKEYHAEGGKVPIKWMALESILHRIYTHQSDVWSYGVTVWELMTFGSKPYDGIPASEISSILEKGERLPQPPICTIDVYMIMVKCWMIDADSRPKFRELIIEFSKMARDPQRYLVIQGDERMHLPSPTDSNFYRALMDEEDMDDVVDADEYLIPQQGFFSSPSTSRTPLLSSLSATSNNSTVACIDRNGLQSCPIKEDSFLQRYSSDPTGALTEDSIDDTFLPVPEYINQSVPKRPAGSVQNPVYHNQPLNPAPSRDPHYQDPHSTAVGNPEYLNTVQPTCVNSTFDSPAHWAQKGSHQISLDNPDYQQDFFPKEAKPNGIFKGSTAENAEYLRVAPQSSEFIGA

NCI-H1975 [30] = assay: Induction of apoptosis in human NCI-H1975 cells assessed as late apoptotic cells at 25 nM incubated for 24 hrs by propidium iodide and annexin-V FITC staining based flow cytometry (reference value: 0.23 %); type: functional
PC-9 = assay: Antiproliferative activity against human PC9 cells expressing EGFR L858R mutant assessed as reduction in cell viability incubated for 72 hrs by MTT assay; type: functional, cell-based; conditions: pc-9
[31] = MRT (0 to t) in ICR mouse at 10 mg/kg, po; type: ADME, organism-based; conditions: in vivo
NCI-H1975 [32] = assay: Induction of apoptosis in human NCI-H1975 cells assessed as late apoptotic cells at 5 nM incubated for 72 hrs by propidium iodide and annexin-V FITC staining based flow cytometry (reference value: 0.01 %); type: functional
NCI-H1975 [33] = assay: Inhibition of cell migration in human NCI-H1975 cells at 5 nM incubated for 24 hrs by phase contrast microscopy relative to control; type: functional; conditions: NCI-H1975, 24 h
[34] = Selectivity index, ratio of IC50 for human HK2 cells to IC50 for human NCI-H1975 cells expressing EGFR T790M/L858R mutant

C=CC(=O)Nc1cc(Nc2nccc(-c3cn(C)c4ccccc34)n2)c(OC)cc1[S+]([O-])CCN(C)C (single isomer, unassigned; (-))
Activity (NCI-H1975 [1]): 29.59% | Activity (NCI-H1975 [2]): 21.59% | Activity (NCI-H1975 [3]): 51.86% | AUC(0-t) [4]: 1910 ng·h/mL | Activity (NCI-H1975 [5]): 1.84% | MRT inf [6]: 2.68 h | Activity (NCI-H1975 [7]): 43.25% | IC50 [8]: 4 nM | Tmax [9]: 4.8 min | Activity (NCI-H1975 [10]): 14.89% | Activity (NCI-H1975 [11]): 0.14% | clearance [12]: 63.9 mL/min/kg | viability at 0.025 µM (NCI-H1975 [13]): 76.8% | viability at 0.05 µM (NCI-H1975 [14]): 13.7% | Tmax [15]: 0.5 h | Activity (NCI-H1975 [16]): 30.74% | IC50 (NCI-H292): 1090 nM | Activity (NCI-H1975 [17]): 31.61% | Activity (NCI-H1975 [18]): 2.73% | IC50 [19]: 9140 nM | AUC(0-inf) [20]: 2000 ng·h/mL | inhibition at 0.05 µM (NCI-H1975 [21]): 87.6% | inhibition at 0.025 µM (NCI-H1975 [22]): 69.7% | Activity (NCI-H1975 [23]): 0.69% | Activity (NCI-H1975 [24]): 0.71% | viability at 0.005 µM (NCI-H1975 [25]): 77% | IC50 (NCI-H1975 [26]): 10 nM | Activity (NCI-H1975 [27]): 58.1% | Activity (NCI-H1975 [28]): 22.23% | IC50 [29]: 229 nM | Activity (NCI-H1975 [30]): 0.86% | IC50 (PC-9): 15 nM | MRT last [31]: 2.32 h | Activity (NCI-H1975 [32]): 18.71% | inhibition at 0.005 µM (NCI-H1975 [33]): 45.1% | Ratio IC50 [34]: >1000
